In PubChem BioAssay (NCI):
Several values for one entry are separate records, joined by “and”; a condition that tells them apart may be missing. Identical values can stand only once.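 Results reflect a 48-hour exposure of cells in 96-well plates to compound at five concentrations. At the GI50, growth is halved. TGI: total growth inhibition.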

Legend:
Test in all cases: DTP human tumour cell line panel, 48 h
[1] = test system: A549 NSCLC
[2] = test system: ACHN renal
[3] = test system: HOP-92 NSCLC
[4] = test system: KM12 colon
[5] = test system: MDA-MB-231 breast
[6] = test system: NCI-H226 lung
[7] = test system: NCI-H23 lung
[8] = test system: OVCAR-4 ovarian
[9] = test system: OVCAR-5 ovarian
[10] = test system: U251 CNS

Row | Compound | TGI [1] [µM] | TGI [2] [µM] | TGI [3] [µM] | TGI [4] [µM] | TGI [5] [µM] | TGI [6] | TGI [7] [µM] | TGI [8] [µM] | TGI [9] [µM] | TGI [10] [µM] | GI50 [1] [µM] | GI50 [2] [nM] | GI50 [3] [nM] | GI50 [4] [nM] | GI50 [5] [nM] | GI50 [6] [µM] | GI50 [7] [nM] | GI50 [8] [nM] | GI50 [9] [nM] | GI50 [10] [nM]
1 | O=C1c2c(O)cccc2C(C(=O)CCCC(=O)C2c3cccc(O)c3C(=O)c3c(O)cccc32)c2cccc(O)c21 | 1.64 | 1.02 | 1 | 0.868 | 0.329 | 1.47 µM | 1.13 | 0.82 | 1.18 | 1.88 | – | – | – | – | – | – | – | – | – | –
2 | CC(C)(C)n1cc(-c2ccnc(NCCCNS(=O)(=O)c3ccc(Cl)cc3)c2)c(-c2cccc(O)c2)n1 | 4.97 | 4.48 | 3.33 | 4.44 | 3.87 | 5.04 µM | 3.48 | 4.64 | 3.19 | 3.42 | 1.97 | 1970 | 1490 | 2080 | 1870 | 2.11 | 1680 | 1940 | 1570 | 1620
3 | Cc1ccc(C(=O)Nc2ccccc2C(=O)N/N=C(\c2ccccc2)c2ccccn2)cc1 | > 100 | > 25.9 | > 100 | > 100 | > 100 | > 100 µM | > 100 | > 100 | > 100 | > 100 | 0.703 | 166 | 6270 | 388 | 517 | 0.895 | 723 | 157 | 607 | 485
4 | CN(C)CCN1C(=O)c2cccc3c(-c4ccc5ncn(C6CCCCC6)c5c4)ccc(c23)C1=O | 2.56 | 2.36 | 6.45 | 13.2 | 9.78 | 7.78 µM | 3.82 | 18.1 | 20.1 | 11.5 | 1.12 | 539 | 1790 | 2240 | 2180 | 2.32 | 1350 | 2110 | 2990 | 2000
5 | COc1cc2c(cc1-c1c(C)noc1C)ncc1[nH]c(=O)n([C@H](C)c3ccccn3)c12 | > 100 | > 100 | 37.3 | > 100 | > 100 | > 100 µM | > 100 | > 100 | > 100 | > 100 | 6.17 | 1200 | 67.7 | 3010 | 528 | 12.1 | 6220 | 1940 | 22400 | 8820
6 | c1ccc([P+](CCC[P+](c2ccccc2)(c2ccccc2)c2ccccc2)(c2ccccc2)c2ccccc2)cc1 | > 100 | > 100 | 82.2 | > 100 | > 100 | 93.8 µM and > 100 µM | > 100 | > 100 | > 100 | > 100 | 14.5 | – | – | 3860 | 23000 | 32.7 | 18800 | 5510 | 34000 | –
7 | CCN1CCN(c2cc(C)nc(NCc3cc(Nc4ccnc5cc(Cl)ccc45)ccc3F)n2)CC1 | > 100 | 11.3 | 19.4 | > 100 | 5.99 | 48.9 µM | > 100 | > 100 | 17.7 | 12.6 | 5.1 | 2890 | 2580 | 5300 | 2020 | 15.4 | 5790 | 2080 | 1670 | 3280
8 | C[C@@H]1CCC2[C@@H](C)[C@H](OC(=O)CCC(=O)NCCNC(=O)Cc3cc(=O)oc4cc(N(C)C)ccc34)O[C@@H]3O[C@]4(C)CC[C@@H]1C23OO4 (some centres not stated) | 23.1 | 17.1 | 16.9 | 16.3 | > 100 | 35.2 µM | 46.6 | > 100 | > 76.9 | 19.1 | 4.52 | 2960 | 2600 | 432 | 22600 | 7.81 | 749 | 11400 | 1280 | 1330
9 | O=C1C(Cl)=C(Nc2ccc3c(c2NC2=C(Cl)C(=O)c4ccccc4C2=O)C(=O)c2ccccc2C3=O)C(=O)c2ccccc21 | 4.61 | 9.05 | 4.95 | 15 | 7.87 | 8.9 µM | 4.1 | 2.99 | 4.4 | 9.38 | 1.95 | 2150 | 2030 | 2980 | 1670 | 2.7 | 1080 | 1420 | 2060 | 2580
